According to patent publication US11474106B2, “Methods for cytotoxic chemotherapy-based predictive assays” (ACCELERATED MEDICAL DIAGNOSTICS, INC., priority 2015, dated 2022):

Tests used:
A549 = experiment: MTT assay (IC50); type: cell-based, human
Experimental: Six non-small cell lung cancer (NSCLC) cell lines were treated in culture with [^14C]carboplatin. Carboplatin-DNA monoadduct levels over time were determined by measuring ^14C content in genomic DNA with accelerator mass spectrometry (AMS). Cellular sensitivity to carboplatin and cisplatin was analyzed by the MTT assay (Henderson et al., International Journal of Cancer 2011).
Human NSCLC cell lines H23, H460, H727, HCC827, H1975, and A549 were purchased from ATCC and were cultured with the recommended medium. The MTT assay was performed as previously reported to determine the drug concentration required to inhibit cell growth by 50% (IC50) of cisplatin and carboplatin. [^14C]Carboplatin (at 53 mCi/mmol) was mixed with unlabeled carboplatin to achieve the specific activities required for microdoses and therapeutic doses. Table 1 lists the six NSCLC cell lines and summarizes their IC50 characteristics, induced carboplatin-DNA monoadducts when treated with [^14C]carboplatin, and p and r^2 values for correlation analysis to the IC50 concentrations.

5637 = experiment: MTT assay (IC50); type: cell-based, human
Experimental: Thus, we measured the IC50 of the six NSCLC cell lines from Example 2 to both cisplatin and carboplatin to determine if the sensitivity of these six NSCLC cell lines to the two drugs are correlated.
The cell lines were purchased from the American Type Culture Collection (ATCC, Manassas, Va.) and cultured in the recommended media.
Drug-DNA adduct formation and repair was measured by accelerator mass spectrometry.
These two cell lines were also cultured with a range of concentrations of cisplatin, carboplatin, gemcitabine, doxorubicin, methotrexate and vinblastine for 72 hours to determine IC50 for these other drugs (FIG. 16C). These drugs were chosen because of their frequent use in the treatment of bladder cancer.

PDX Model BL0440 = experiment: Drug-DNA adduct frequency in PDX tumor tissue by AMS; type: in vivo, NSG mice; details: microdose 0.092 mg/kg gemcitabine, 24 h
Excerpt: (§1) Female NSG mice (5-8 weeks of age, body weight: 20 to 25 g) were obtained from Jackson Laboratories (CA, USA). All animals were kept under pathogen-free conditions and were allowed to acclimatize for at least 4 days prior to any experiments. PDX models bearing the indicated patient derived xenografts were created by subcutaneous injection at the flank of 1 mm^3 tumor tissue. To establish multiple PDXs to allow efficacy studies with multiple drugs, PDXs from passage 2-4 were minced into 1 mm^3 sections and injected subcutaneously into multiple mice. At least 3 mice were used for each treatment group. Tumors were allowed to grow to at about 100 mm^3 before being assessed for drug sensitivity or the induction of DNA adducts by the administration of a microdose or a therapeutic dose of labeled drug. […] Tumor growth was assessed by measuring palpable tumors with a caliper and calculating tumor volume. Drug-DNA adduct frequencies were measured in tumor tissue collected 24 hours after intravenous injection of labeled drug and stored at −80° C. until DNA isolation. DNA was isolated using a modified Wizard procedure (Promega), quantitated by spectrophotometry, and then stored frozen at −20° C. until AMS analysis. Ten micrograms of DNA per sample was converted to graphite and measured by AMS for 14C quantification as previously described. […]

PDX Model BL0293 = experiment: as above; type: in vivo, NSG mice; details: microdose 0.092 mg/kg gemcitabine, 24 h
Excerpt: as §1

PDX Model BL0269 = experiment: as above; type: in vivo, NSG mice
Excerpt: (§2) Female NSG mice (5-8 weeks of age, body weight: 20 to 25 g) were obtained from Jackson Laboratories (CA, USA). All animals were kept under pathogen-free conditions and were allowed to acclimatize for at least 4 days prior to any experiments. PDX models bearing the indicated patient derived xenografts were created by subcutaneous injection at the flank of 1 mm^3 tumor tissue. To establish multiple PDXs to allow efficacy studies with multiple drugs, PDXs from passage 2-4 were minced into 1 mm^3 sections and injected subcutaneously into multiple mice. At least 3 mice were used for each treatment group. Tumors were allowed to grow to at about 100 mm^3 before being assessed for drug sensitivity or the induction of DNA adducts by the administration of a microdose or a therapeutic dose of labeled drug. To assess tumor response to chemotherapy, cisplatin was administered at 2 mg/kg IV every 7 days for a total of 3 cycles, or gemcitabine was administered at 150 mg/kg IP every 7 days for a total of 4 cycles. G/C combination chemotherapy consisted of the simultaneous administration of both drugs using the schema described above. Tumor growth was assessed by measuring palpable tumors with a caliper and calculating tumor volume. Drug-DNA adduct frequencies were measured in tumor tissue collected 24 hours after intravenous injection of labeled drug and stored at −80° C. until DNA isolation. DNA was isolated using a modified Wizard procedure (Promega), quantitated by spectrophotometry, and then stored frozen at −20° C. until AMS analysis. Ten micrograms of DNA per sample was converted to graphite and measured by AMS for 14C quantification as previously described.
(§3) NSG mice bearing the indicated PDX tumors were injected with a microdose of ^14C-labeled carboplatin (FIG. 22A) or ^14C-labeled gemcitabine (FIG. 22B). The microdose of ^14C-labeled carboplatin was 0.375 mg/kg carboplatin, 50,000 dpm/g. The microdose of ^14C-labeled gemcitabine was 0.092 mg/kg gemcitabine, 1000 dpm/g. The doses of each drug administered to the mice were chosen to target 1 μM in plasma concentration of carboplatin and 0.3 μM in plasma concentration of gemcitabine. These plasma concentrations represent 1% of the approximate peak plasma concentration during human chemotherapy. Animals were sacrificed after 24 h and drug-DNA adduct frequency was determined from collected tumor tissue by AMS measurements of ^14C in tumor DNA. Carboplatin DNA-adduct levels correlate with PDX model sensitivity to cisplatin at 24h after microdosing (FIG. 22A). […]
(§4) In this example we test whether gemcitabine/carboplatin (G/Carbo) combination therapy has an effect on the formation of drug-DNA adducts in this synergistic tumor model. […] Carboplatin-DNA monoadducts were measured in tumor tissue 24 h after dosing. […]

PDX Model BL0645 = experiment: as above; type: in vivo, NSG mice; details: 24 h
Excerpt: as §2, §3, §4

## N.N.[Cl][Pt][Cl] [cisplatin]
A549
  IC50: 26300 ± 9260 nM
5637; 5637 (Table 2)
  IC50: 2430 ± 450 nM
5637; 5637 (parental, Example 11), MTT, 72 hours
  IC50: 590 nM

## Nc1ccn([C@@H]2O[C@H](CO)[C@@H](O)C2(F)F)[14c](=O)n1 [[^14C]gemcitabine, 2′-Deoxy-2′,2′-difluorocytidine, [cytosine-2-^14C]-]
PDX Model BL0440
  gemcitabine adduct levels: 13.1±10.2
PDX Model BL0293
  gemcitabine adduct levels: 10.0±5.92
PDX Model BL0269; BL0269 control experiment (FIG. 23F), microdose gemcitabine 0.092 mg/kg, alone or with carboplatin 0.375 mg/kg
  gemcitabine-DNA adduct levels: 2.44±0.492 adducts per 10^8 nucleotides
PDX Model BL0269; BL0269 tumor DNA, microdose 0.092 mg/kg gemcitabine, 24 h (FIG. 22B)
  gemcitabine adduct levels: 3.17±0.278
PDX Model BL0645; BL0645, therapeutic dose gemcitabine 9.2 mg/kg, alone or with carboplatin 37.5 mg/kg
  gemcitabine adduct level: 169.2±9.129 adducts per 10^8 nucleotides
PDX Model BL0645; BL0645 tumor DNA, microdose 0.092 mg/kg gemcitabine, alone or with carboplatin 0.375 mg/kg
  gemcitabine adduct levels: 2.44±0.880 adducts per 10^8 nucleotides
